Key:
[1] = system: bacteria on skin surfaces; test: Persistence of bacterial reduction on skin surfaces; type: in vivo
From the text: It has been discovered that incorporation of at least one of the aforementioned antimicrobial agents in a formulation comprised of a Surfactant Phase, and a Wax Phase result in a product which is particularly effective in preventing cross-contamination of pathogenic microorganisms in the workplace. […] It is applicable to any area of intact skin, and will kill pathogenic bacteria on contact and remain effective for extended periods of time. The mechanism of microbicidal action of these antibacterial agents is thought to be due to the disruption of intermolecular actions of the microbes.

[2] = system: gram-positive and gram-negative bacteria, plus fungi and yeasts; details: see list in U.S. Pat. Nos. 6,187,327 and 6,517,854; cited from earlier work

Oc1cc(Cl)ccc1Oc1ccc(Cl)cc1Cl [TRICLOSAN, 2,4,4′-trichloro-2′-hydroxydiphenyl ether]
period for which the incidence of bacteria on skin surfaces is significantly reduced [1]: 3 to 4 h
efficacy against microorganisms [2]: demonstrated efficacy

— patent US20080044479A1, “Antimicrobial sanitizing formulations with skin protection properties” (priority 2006, published 2008)
